According to article PMC3175016 (Journal of applied toxicology : JAT, 2011):
Like-named read-outs stand apart in the source and are kept apart here. Marks after values point to notes of the source that are not given here.

How the values were obtained:
[1] = test system: male Fischer 344 rats; settings: ref Patel et al., 2008, cited from earlier work
[2] = test system: male Fischer 344 rats; assay: Liver weight 24 h after a single i.p. dose; assay type: in vivo; settings: i.p. in corn oil, mean ± SE, N = 3–4
[3] = test system: male Fischer 344 rats; assay: Blood urea nitrogen; assay type: in vivo; settings: for Blood urea nitrogen: i.p. in corn oil, 24 h, mean ± SE, N = 3–4
[4] = test system: male Fischer 344 rats; assay: Liver histology; assay type: in vivo; settings: 24 h
[5] = test system: male Fischer 344 rats; assay: Clinical observation 24 h after dosing; assay type: in vivo, rat; settings: 0.6 mmol/kg i.p., 24 h after dosing (sluggish movements and low body temperatures)
[6] = test system: male Fischer 344 rats; assay: Serum alanine aminotransferase; assay type: in vivo; settings: 24 h
[7] = test system: male Fischer 344 rats; assay: Urine volume after a single i.p. dose; assay type: in vivo; settings: i.p. in corn oil, mean ± SE, N = 3–4
[8] = test system: male Fischer 344 rats; assay: Kidney weight 24 h after a single i.p. dose; assay type: in vivo; settings: i.p. in corn oil, mean ± SE, N = 3–4
[9] = test system: male Fischer 344 rats; assay: Six-hour urine protein content after a single i.p. dose; assay type: in vivo; settings: i.p. in corn oil, mean ± SE, N = 3–4
[10] = test system: male Fischer 344 rats; assay: Kidney histology; assay type: in vivo; settings: all doses evaluated, i.p., 24 h, vs corn oil
[11] = dose 0.2 (head mg/kg; text mmol/kg)
[12] = dose 0.4 (head mg/kg; text mmol/kg)
[13] = dose 0.6 (head mg/kg; text mmol/kg)
[14] = dose 1.0 (head mg/kg; text mmol/kg)

SMILES | Liver weight [2, 11] | Liver weight [2, 12] | Liver weight [2, 13] | Blood urea nitrogen [3, 11] | Blood urea nitrogen [3, 12] | Blood urea nitrogen [3, 13] | ALT elevation compared to corn oil controls ([6]; 0.6 mmol/kg i.p.) | Twenty-four-hour urine volume [7, 11] | Twenty-four-hour urine volume [7, 12] | Twenty-four-hour urine volume [7, 13] | Kidney weight [8, 11] | Kidney weight [8, 12] | Kidney weight [8, 13] | Six-hour urine protein content [9, 11] | Six-hour urine protein content [9, 12] | Six-hour urine protein content [9, 13] | Kidney morphology [10] | further results
O=C1CSC(=O)N1c1cc(Cl)cc(Cl)c1 [DCPT, 3-(3,5-dichlorophenyl)-2,4-thiazolidinedione] |  |  |  |  |  |  |  |  |  |  |  |  |  |  |  |  |  | ALT values ([1]; 0.2 mmol/kg): 26.7 ± 6.6 SF units/ml; ALT values ([1]; 0.4 mmol/kg): 231.5 ± 50.0 SF units/ml; ALT values ([1]; 0.6 mmol/kg): 281.7 ± 103.0 SF units/ml; ALT values ([1]; 1.0 mmol/kg): 506.9 ± 99.4 SF units/ml
O=C(O)CSC(=O)Nc1cc(Cl)cc(Cl)c1 [DCTA, [[[(3,5-dichlorophenyl)amino]carbonyl]thio]acetic acid] | 3.58 ± 0.21^b g/100% BW | 3.62 ± 0.05^b g/100% BW | 3.46 ± 0.17^b g/100% BW | 21.0 ± 1.0^b mg/dl | 62.2 ± 11.2*,^c mg/dl | 67.8 ± 17.9*,^c mg/dl | about 2 fold | 12.5 ± 3.8^b ml | 13.1 ± 2.4^b ml | 9.5 ± 5.0^b ml | 0.40 ± 0.01^b g/ 100% BW | 0.43 ± 0.01 *,^b,^c g/ 100% BW | 0.45 ± 0.01 *,^c g/ 100% BW | 2.9 ± 0.9^b mg | 2.5 ± 0.4^b mg | 2.5 ± 1.1^b mg | did not exhibit obvious changes in kidney morphology | Increase in serum BUN concentrations ([3]; 0.4 and 0.6 mmol/kg, compared to corn oil and the 0.2 mmol/kg dose): about 3 fold; Liver morphology ([4]; 0.6 mmol/kg i.p.): nuclear condensation was apparent in some hepatocytes; Liver morphology ([4]; 0.2 and 0.4 mmol/kg i.p.): did not produce any significant changes; Clinical appearance [5]: appeared to be moribund; Change in serum ALT levels ([6]; 0.2 and 0.4 mmol/kg i.p.): no changes were noted
O=C1CSC(=O)N1c1ccccc1 [PTZD, 3-phenyl-2,4-thiazolidinedione] | 3.69 ± 0.25^e g/100% BW | 3.68 ± 0.18^e g/100% BW | 4.08 ± 0.08^e g/100% BW | 24.8 ± 1.9^d mg/dl | 24.1 ± 0.9^d mg/dl | 28.6 ± 2.0*,^d mg/dl | ~26 fold | 6.1 ± 1.7^d ml | 11.5 ± 3.2^d ml | 12.5 ± 2.4^d ml | 0.36 ± 0.01^d g/ 100% BW | 0.40 ± 0.00*,^e g/ 100% BW | 0.41 ± 0.01*,^e g/ 100% BW | 2.1 ± 0.5^d mg | 2.1 ± 0.2^d mg | 3.4 ± 0.9^d mg | dilation of distal tubules and collecting tubules | Liver weight [2, 14]: 4.24 ± 0.06*,^e g/100% BW; Blood urea nitrogen [3, 14]: 31.3 ± 2.4*,^d mg/dl; Liver morphology ([4]; 0.2 mmol/kg i.p.): did not show any signs of hepatic damage; Liver morphology ([4]; 0.4 mmol/kg i.p.): some damage with granular and irregularly stained cytoplasm and indistinct nuclei; Liver morphology ([4]; 1.0 mmol/kg i.p.): larger necrotic lesions were present and an acute inflammatory response occurred; Change in serum ALT levels ([6]; 0.2 mmol/kg i.p., vs corn oil): did not produce a significant change; ALT elevation compared to corn oil controls ([6]; 0.4 mmol/kg i.p.): approximately 7 fold; serum alanine aminotransferase (ALT) activity ([6]; 1.0 mmol/kg i.p. in corn oil, corn oil controls 36.0 ± 11.3): 1196.2 ± 133.6 Sigma-Frankel units/ml; ALT elevation compared to corn oil controls ([6]; 1.0 mmol/kg i.p.): ~33 fold; Twenty-four-hour urine volume [7, 14]: 22.6 ± 0.4*,^e ml; Kidney weight [8, 14]: 0.47 ± 0.01 *,^f g/ 100% BW; Six-hour urine protein content [9, 14]: 2.3 ± 0.6^d mg
